# Experimental data reported in EPA's CvTdb concentration-time database.
# Assays:
# Mouse = assay: concentration in plasma after dosing; settings: 0.25 h; dosed: 2-Hydroxy-4-methoxybenzophenone; 250 mg/kg; oral; Male; B6C3F1
# Rat [1] = assay: concentration in plasma after dosing; settings: dosed: 2-Hydroxy-4-methoxybenzophenone, 250 mg/kg, oral, Male, F344
# Rat [2] = assay: concentration in plasma after dosing; settings: 5 min; dosed: Nitrite; 80 mg/kg; oral; Female; F344
# Rat [3] = assay: concentration in plasma after dosing; settings: 2 min; dosed: Nitrite; 40 mg/kg; oral; Female; F344
# Rat [4] = assay: concentration in plasma after dosing; settings: 5 min; dosed: Nitrite; 40 mg/kg; oral; Female; F344
# Rat [5] = assay: concentration in plasma after dosing; settings: dosed: Nitrite, 80 mg/kg, oral, Female, F344
# Rat [6] = assay: concentration in plasma after dosing; settings: 10 min; dosed: Nitrite; 40 mg/kg; oral; Male; F344
# Rat [7] = assay: concentration in kidney after dosing; settings: 3 h; dosed: Fluorotelomer alcohol 8+2; 80 mg/kg; oral; Female; Harlan Sprague Dawley
# Rat [8] = assay: concentration in brain after dosing; settings: 12 h; dosed: Perfluorooctanoic acid; 80 mg/kg; oral; Female; Harlan Sprague Dawley
# Rat [9] = assay: concentration in liver after dosing; settings: 528 h; dosed: Perfluorooctanoic acid; 12 mg/kg; oral; Male; Harlan Sprague Dawley
# Rat [10] = assay: concentration in kidney after dosing; settings: 6 h; dosed: Fluorotelomer alcohol 8+2; 80 mg/kg; oral; Female; Harlan Sprague Dawley
# Rat [11] = assay: concentration in liver after dosing; settings: 3 h; dosed: Fluorotelomer alcohol 8+2; 24 mg/kg; oral; Male; Harlan Sprague Dawley
# Rat [12] = assay: concentration in kidney after dosing; settings: 6 h; dosed: Perfluorooctanoic acid; 12 mg/kg; oral; Male; Harlan Sprague Dawley
# Rat [13] = assay: concentration in plasma after dosing; settings: dosed: 678-39-7, 12 mg/kg, iv, Male, F344
# Rat [14] = assay: concentration in liver after dosing; settings: 1200 h; dosed: Perfluorooctanoic acid; 12 mg/kg; oral; Male; Harlan Sprague Dawley
# Rat [15] = assay: concentration in plasma after dosing; settings: dosed: Potassium Perfluorobutane Sulfonate, 4 mg/kg, iv, Male, F344
# Rat [16] = assay: concentration in brain after dosing; settings: 0.5 h; dosed: Potassium Perfluorobutane Sulfonate; 20 mg/kg; oral; Female; Harlan Sprague Dawley
# Rat [17] = assay: concentration in plasma after dosing; settings: 1.5 h; dosed: Potassium Perfluorobutane Sulfonate; 20 mg/kg; oral; Male; Harlan Sprague Dawley
# Rat [18] = assay: concentration in kidney after dosing; settings: 1 h; dosed: Potassium Perfluorobutane Sulfonate; 20 mg/kg; oral; Female; Harlan Sprague Dawley
# rat [19] = assay: concentration in adipose after dosing (ugEq/g tissue); settings: dosed: benzo[a]pyrene, iv, male, Wistar
# rat [20] = assay: concentration in lung after dosing (ugEq/g tissue); settings: dosed: benzo[a]pyrene, iv, male, Wistar
smiles,measurement,setting,value
COc1ccc(C(=O)c2ccccc2)c(O)c1 [2-Hydroxy-4-methoxybenzophenone],concentration in plasma,Mouse,231 ng/mL
same,concentration in plasma,Rat [1]; 10 min,35.9 ng/mL
same,concentration in plasma,Rat [1]; 3 h,71.3 ng/mL
O=N[O-] [Nitrite],concentration in plasma,Rat [2],18700 ng/mL
same,concentration in plasma,Rat [3],7300 ng/mL
same,concentration in plasma,Rat [4],9500 ng/mL
same,concentration in plasma,Rat [5]; 0.5 h,5200 ng/mL
same,concentration in plasma,Rat [5]; 4 h,2300 ng/mL
same,concentration in plasma,Rat [6],2600 ng/mL
O=C(O)C(F)(F)C(F)(F)C(F)(F)C(F)(F)C(F)(F)C(F)(F)C(F)(F)F [Perfluorooctanoic acid],concentration in kidney,Rat [7],2010 ng/g
same,concentration in brain,Rat [8],1280 ng/g
same,concentration in liver,Rat [9],19500 ng/g
same,concentration in kidney,Rat [10],2040 ng/g
same,concentration in liver,Rat [11],1430 ng/g
same,concentration in kidney,Rat [12],43100 ng/g
same,concentration in plasma,Rat [13]; 1 h,378 ng/mL
same,concentration in plasma,Rat [13]; 6 h,480 ng/mL
same,concentration in liver,Rat [14],4980 ng/g
O=S(=O)([O-])C(F)(F)C(F)(F)C(F)(F)C(F)(F)F.[K+] [Potassium Perfluorobutane Sulfonate],concentration in plasma,Rat [15]; 0.5 h,22200 ng/mL
same,concentration in plasma,Rat [15]; 12 h,938 ng/mL
same,concentration in brain,Rat [16],511 ng/g
same,concentration in plasma,Rat [17],58500 ng/mL
same,concentration in kidney,Rat [18],19300 ng/g
c1ccc2c(c1)cc1ccc3cccc4ccc2c1c34 [benzo[a]pyrene],concentration in adipose,"rat [19]; 5 min, 2 mg/kg",1.06
same,concentration in adipose,"rat [19]; 5 min, 6 mg/kg",0.37
same,concentration in adipose,"rat [19]; 5 min, 15 mg/kg",1.47
same,concentration in adipose,"rat [19]; 10 min, 2 mg/kg",1.22
same,concentration in adipose,"rat [19]; 10 min, 6 mg/kg",0.81
same,concentration in adipose,"rat [19]; 10 min, 15 mg/kg",2.73
same,concentration in adipose,"rat [19]; 20 min, 2 mg/kg",1.82
same,concentration in adipose,"rat [19]; 20 min, 6 mg/kg",2.04
same,concentration in adipose,"rat [19]; 20 min, 15 mg/kg",5.65
same,concentration in adipose,"rat [19]; 0.5 h, 2 mg/kg",2.77
same,concentration in adipose,"rat [19]; 0.5 h, 6 mg/kg",2.29
same,concentration in adipose,"rat [19]; 0.5 h, 15 mg/kg",8.6
same,concentration in adipose,"rat [19]; 0.75 h, 2 mg/kg",2.4
same,concentration in adipose,"rat [19]; 0.75 h, 6 mg/kg",4.54
same,concentration in adipose,"rat [19]; 0.75 h, 15 mg/kg",13.4
same,concentration in adipose,"rat [19]; 1 h, 2 mg/kg",3.86
same,concentration in adipose,"rat [19]; 1 h, 6 mg/kg",3.99
same,concentration in adipose,"rat [19]; 1 h, 15 mg/kg",9.76
same,concentration in adipose,"rat [19]; 1.5 h, 2 mg/kg",2.58
same,concentration in adipose,"rat [19]; 1.5 h, 6 mg/kg",5.25
same,concentration in adipose,"rat [19]; 1.5 h, 15 mg/kg",14.8
same,concentration in adipose,"rat [19]; 2 h, 2 mg/kg",3.96
same,concentration in adipose,"rat [19]; 2 h, 6 mg/kg",3.37
same,concentration in adipose,"rat [19]; 2 h, 15 mg/kg",17.1
same,concentration in adipose,"rat [19]; 3 h, 2 mg/kg",3.29
same,concentration in adipose,"rat [19]; 3 h, 6 mg/kg",2.88
same,concentration in adipose,"rat [19]; 3 h, 15 mg/kg",19.8
same,concentration in adipose,"rat [19]; 4 h, 2 mg/kg",2.96
same,concentration in adipose,"rat [19]; 4 h, 6 mg/kg",2.38
same,concentration in adipose,"rat [19]; 4 h, 15 mg/kg",15.4
same,concentration in adipose,"rat [19]; 5 h, 2 mg/kg",3.03
same,concentration in adipose,"rat [19]; 5 h, 6 mg/kg",3.88
same,concentration in adipose,"rat [19]; 5 h, 15 mg/kg",27.8
same,concentration in adipose,"rat [19]; 6 h, 2 mg/kg",2.28
same,concentration in adipose,"rat [19]; 6 h, 6 mg/kg",4.26
same,concentration in adipose,"rat [19]; 6 h, 15 mg/kg",15.1
same,concentration in adipose,"rat [19]; 8 h, 2 mg/kg",3.13
same,concentration in adipose,"rat [19]; 8 h, 6 mg/kg",4.09
same,concentration in adipose,"rat [19]; 8 h, 15 mg/kg",17.4
same,concentration in adipose,"rat [19]; 24 h, 2 mg/kg",1.38
same,concentration in adipose,"rat [19]; 24 h, 15 mg/kg",11.1
same,concentration in adipose,"rat [19]; 32 h, 2 mg/kg",1.46
same,concentration in adipose,"rat [19]; 32 h, 6 mg/kg",1.02
same,concentration in adipose,"rat [19]; 32 h, 15 mg/kg",5.85
same,concentration in lung,"rat [20]; 5 min, 2 mg/kg",5.17
same,concentration in lung,"rat [20]; 5 min, 6 mg/kg",33.9
same,concentration in lung,"rat [20]; 5 min, 15 mg/kg",46
same,concentration in lung,"rat [20]; 10 min, 2 mg/kg",1.31
same,concentration in lung,"rat [20]; 10 min, 6 mg/kg",13.6
same,concentration in lung,"rat [20]; 10 min, 15 mg/kg",26.1
same,concentration in lung,"rat [20]; 20 min, 2 mg/kg",2.8
same,concentration in lung,"rat [20]; 20 min, 6 mg/kg",17.3
same,concentration in lung,"rat [20]; 20 min, 15 mg/kg",23.4
same,concentration in lung,"rat [20]; 0.5 h, 2 mg/kg",1.06
same,concentration in lung,"rat [20]; 0.5 h, 6 mg/kg",16
same,concentration in lung,"rat [20]; 0.5 h, 15 mg/kg",25.8
same,concentration in lung,"rat [20]; 0.75 h, 2 mg/kg",2.68
same,concentration in lung,"rat [20]; 0.75 h, 6 mg/kg",5.85
same,concentration in lung,"rat [20]; 0.75 h, 15 mg/kg",13.7
same,concentration in lung,"rat [20]; 1 h, 2 mg/kg",2.4
same,concentration in lung,"rat [20]; 1 h, 6 mg/kg",2.76
same,concentration in lung,"rat [20]; 1 h, 15 mg/kg",17
same,concentration in lung,"rat [20]; 1.5 h, 2 mg/kg",1.07
same,concentration in lung,"rat [20]; 1.5 h, 6 mg/kg",5.3
same,concentration in lung,"rat [20]; 1.5 h, 15 mg/kg",38.5
same,concentration in lung,"rat [20]; 2 h, 2 mg/kg",14.7
same,concentration in lung,"rat [20]; 2 h, 6 mg/kg",5.84
same,concentration in lung,"rat [20]; 2 h, 15 mg/kg",37
same,concentration in lung,"rat [20]; 3 h, 2 mg/kg",0.34
same,concentration in lung,"rat [20]; 3 h, 6 mg/kg",0.4
same,concentration in lung,"rat [20]; 3 h, 15 mg/kg",7.07
same,concentration in lung,"rat [20]; 4 h, 2 mg/kg",0.04
same,concentration in lung,"rat [20]; 4 h, 6 mg/kg",2.64
same,concentration in lung,"rat [20]; 4 h, 15 mg/kg",22.4
same,concentration in lung,"rat [20]; 5 h, 2 mg/kg",0.68
same,concentration in lung,"rat [20]; 5 h, 6 mg/kg",12.4
same,concentration in lung,"rat [20]; 5 h, 15 mg/kg",33.2
same,concentration in lung,"rat [20]; 6 h, 2 mg/kg",0.06
same,concentration in lung,"rat [20]; 6 h, 6 mg/kg",6.27
same,concentration in lung,"rat [20]; 6 h, 15 mg/kg",22.6
same,concentration in lung,"rat [20]; 8 h, 2 mg/kg",9.32
same,concentration in lung,"rat [20]; 8 h, 6 mg/kg",5.09
same,concentration in lung,"rat [20]; 8 h, 15 mg/kg",18.4
same,concentration in lung,"rat [20]; 24 h, 15 mg/kg",10.2
same,concentration in lung,"rat [20]; 32 h, 6 mg/kg",3.9
same,concentration in lung,"rat [20]; 32 h, 15 mg/kg",15.7
